Results reported in patent publication US20250059233A1, “USE OF THERAPEUTIC PEPTIDES” (Viage Therapeutics Inc., priority 2021, published 2025).
Counter-ions that a name gives are not always drawn. No end group written: not given here.

Key:
Male ICR mice = test: Step-down inhibitory avoidance test, scopolamine-induced memory impairment; type: in vivo; conditions: 1.5 mg/kg oral gavage once a day for 21 days; scopolamine 2 mg/kg i.p.; vs model group, P<0.01
Procedure: Male ICR mice, aged 4-5 weeks were used in the study.
The study was performed in step-down inhibitory avoidance equipment with dimensions 12 cm×2 cm×18 cm in each chamber (Model: YLS-3T, Shandong Yiyan Technology Co., LTD., China). The bottom of each chamber was covered with a copper grid that can be electrified. A rubber platform was placed in the right corner of each chamber.
Male ICR mice in each group were treated by oral gavage once a day for 21 days with the vehicle, Donepezil Hydrochloride (1.5 mg/kg), and the peptide […] (SEQ ID NO:2) (0.3, 10 mg/kg), respectively. Two hours after the last administration, scopolamine hydrobromide (2 mg/kg) was injected intraperitoneally to induce memory impairment.
Fifty male ICR mice were divided into 5 groups according to the average of body weight, 10 mice in each group, as detailed in Table 1. […]
Evaluation period: 24 h after the training period, the mice were placed on the rubber platform and evaluated for 5 minutes. The latency of the first jump from the platform to the copper grid was observed and counted, and the latency in seconds was analyzed to evaluate memory improvement.
All results were given as mean±SEM, and the data differences between groups were analyzed by t-test for the paired comparisons using the GraphPad Prism 8 statistical package (GraphPad Software Inc., San Diego, CA, USA). […]

AVPR1A, AVPR1B, AVPR2 = test: Tail suspension test (TST) with vasopressin receptor inhibitors; type: in vivo
healthy subjects = conditions: human, in vivo
Procedure: A Phase 1a/1b, randomized, placebo-controlled, crossover study with the peptide [sequence] (SEQ ID NO:2) in healthy subjects was performed. The study population included men and women in good general health.
A single ascending dose (SAD) group included four cohorts receiving 60 mg/day (cohorts SAD1 and SAD2). 180 mg/day (cohort SAD3), or 540 mg/day (cohort SAD4) of the peptide or placebo. A multiple ascending dose (MAD) group included three cohorts receiving 60 mg/day (cohort MAD1), 180 mg/day (cohort MAD2), or 540 mg/day (cohort MAD3) of the peptide or placebo for seven days. All doses were administered orally.

[1] = inhibitor given with the peptide

COc1cc2c(cc1OC)C(=O)C(CC1CCN(Cc3ccccc3)CC1)C2 (centres unmarked) [Donepezil Hydrochloride]
latency of the first jump from the platform (step-down) (Male ICR mice): significantly longer than the model group

Cc1ccccc1C(=O)Nc1ccc(C(=O)N2CCCC(O)c3cc(Cl)ccc32)c(C)c1 (centres unmarked) [tolvaptan]
blocking of LSSTQAQQSY activity in a tail suspension test (AVPR1A, AVPR1B, AVPR2; [1]): does not block

LSSTQAQQSY
vital signs, electrocardiography (ECG) data, and physical examinations (healthy subjects): normal

Cc1nc2c([nH]1)-c1ccccc1N(C(=O)c1ccc(NC(=O)c3ccccc3-c3ccccc3)cc1)CC2 [conivaptan]
blocking of LSSTQAQQSY activity in a tail suspension test (AVPR1A, AVPR1B, AVPR2; [1]): blocks | blocking of LSSTQAQQSY activity in a tail suspension test (AVPR1A, AVPR1B, AVPR2; low doses of the inhibitor): blocks
